Data published in ChEMBL document CHEMBL1201862, “PubChem BioAssay data set” (2004).
Calls of active or inactive are those of the source.

Legend:
Prothrombin = Prothrombin (Bos taurus, UniProt P00735); test: thrombin inhibition, dose response, biochemical, fluorescence polarization, uHTS hits (AID 602369); type: functional
[1] = target: 26S proteasome non-ATPase regulatory subunit 14 (Homo sapiens, UniProt O00487); test: inhibition of proteasome subunit RPN11 – biochemical, fluorescence polarization, uHTS hits, confirmation (AID 602368); type: functional
Chain of 26S proteasome non-ATPase regulatory subunit 14 (O00487 whole entry): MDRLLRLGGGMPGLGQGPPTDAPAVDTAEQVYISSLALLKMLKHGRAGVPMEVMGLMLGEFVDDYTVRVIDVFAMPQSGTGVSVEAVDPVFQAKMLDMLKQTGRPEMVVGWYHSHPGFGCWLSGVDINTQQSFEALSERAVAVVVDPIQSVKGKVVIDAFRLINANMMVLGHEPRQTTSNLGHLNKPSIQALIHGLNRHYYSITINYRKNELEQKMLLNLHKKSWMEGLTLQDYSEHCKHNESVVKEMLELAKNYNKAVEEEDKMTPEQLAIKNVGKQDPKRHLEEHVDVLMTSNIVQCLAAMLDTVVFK

[2] = target: 72 kDa type IV collagenase (Homo sapiens, UniProt P08253); test: Dose Response validation of uHTS RPN11 inhibitor hits using a MMP-2 Fluorescence assay.; type: functional
Chain of 72 kDa type IV collagenase (P08253 whole entry, the tested form may be a part): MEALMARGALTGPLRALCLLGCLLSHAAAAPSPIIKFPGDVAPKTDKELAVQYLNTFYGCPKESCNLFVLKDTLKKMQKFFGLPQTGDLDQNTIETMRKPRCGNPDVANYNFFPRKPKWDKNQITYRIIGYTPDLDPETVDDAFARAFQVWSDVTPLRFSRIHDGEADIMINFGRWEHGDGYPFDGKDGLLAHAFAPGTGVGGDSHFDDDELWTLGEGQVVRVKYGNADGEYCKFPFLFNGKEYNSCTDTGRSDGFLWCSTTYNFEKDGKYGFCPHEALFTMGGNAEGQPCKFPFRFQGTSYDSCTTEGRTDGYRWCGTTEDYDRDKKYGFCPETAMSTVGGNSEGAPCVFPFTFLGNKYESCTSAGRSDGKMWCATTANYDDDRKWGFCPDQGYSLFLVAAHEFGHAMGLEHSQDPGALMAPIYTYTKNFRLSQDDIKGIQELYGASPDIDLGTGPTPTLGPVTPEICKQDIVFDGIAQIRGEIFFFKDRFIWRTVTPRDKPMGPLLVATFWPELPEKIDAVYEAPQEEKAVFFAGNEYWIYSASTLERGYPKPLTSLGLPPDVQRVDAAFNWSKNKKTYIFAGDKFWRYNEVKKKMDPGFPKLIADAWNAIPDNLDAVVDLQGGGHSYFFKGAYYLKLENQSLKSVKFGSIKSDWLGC

[3] = inhibitors of HIV Env-driven cell fusion, dose response, cherry-pick (AID 652057); type: functional, cell-based
[4] = off-target signal loss in HeLa-CEM21 co-culture – HeLa F-luc CTL cells, cherry-picked, counter-screen for HIV-1 Env fusion inhibitor project, dose response (AID 652040); type: functional, cell-based;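 also: potency for signal decrease marking cytotoxic or nonspecific inhibition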
[5] = ZM109 Env clade C HIV-1 fusion inhibitors, dose response, HeLa effector, CEM target cells, luciferase, cherry-pick (AID 652058); type: functional, cell-based
[6] = inhibitors of clade B AD8 Env fusion, dose response, cell-based, cherry-pick (AID 652062); type: functional;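 also: luciferase signal from cell-cell fusion driven by HIV-1 clade B AD8 Env; potency is for inhibitors of fusion seen as a drop in luminescence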
Streptokinase A = target: T1, Streptokinase A (Streptococcus pyogenes serotype M1, UniProt P10520); test: S. pyogenes streptokinase expression inhibitors, potency, dose response, plasminogen activation absorbance, OD405 (AID 1914); type: functional, Streptococcus pyogenes M1 GAS;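 also: secreted streptokinase activity via plasminogen activation per viability signal from cell pellet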
T1 sequence (P10520 whole entry): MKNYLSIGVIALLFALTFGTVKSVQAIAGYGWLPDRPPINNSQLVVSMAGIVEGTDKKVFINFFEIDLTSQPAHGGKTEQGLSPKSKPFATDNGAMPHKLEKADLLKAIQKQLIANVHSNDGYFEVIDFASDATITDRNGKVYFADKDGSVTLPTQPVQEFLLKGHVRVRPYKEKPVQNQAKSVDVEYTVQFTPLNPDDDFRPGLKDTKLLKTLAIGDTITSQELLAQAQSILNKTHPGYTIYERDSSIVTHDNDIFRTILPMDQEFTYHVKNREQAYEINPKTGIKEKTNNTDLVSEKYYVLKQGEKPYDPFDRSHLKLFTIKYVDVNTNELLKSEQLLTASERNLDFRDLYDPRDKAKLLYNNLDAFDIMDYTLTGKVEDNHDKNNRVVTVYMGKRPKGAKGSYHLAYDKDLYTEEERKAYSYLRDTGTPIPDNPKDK

[7] = C. albicans growth with fluconazole, confirmation, fluorescence, retest (AID 2467); type: functional, cell-based
Streptococcus = test: Group A Streptococcus viability loss, dose response, counter-screen for streptokinase expression inhibitor project, luminescence, BacTiterGlo (AID 1915); type: functional, organism-based;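 also: potency for reduction of bacterial viability or growth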
[8] = target: T2, Serine/threonine-protein phosphatase (Candida dubliniensis (strain CD36 / CBS 7987 / NCPF 3949 / NRRLY-17841) (Yeast), UniProt B9W6M3); test: calcineurin pathway inhibitors in yeast reporter, dose response, S. cerevisiae, CDRE-lacZ, luminescence, secondary (AID 2388); type: functional, cell-based;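 also: yeast reporter cells carrying a calcineurin-responsive lacZ construct stimulated with calcium chloride; luminescent beta-galactosidase reporter signal in whole cells rather than isolated phosphatase activity; potency for inhibition where a drop in reporter signal means calcineurin blockade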
T2 sequence (B9W6M3 whole entry): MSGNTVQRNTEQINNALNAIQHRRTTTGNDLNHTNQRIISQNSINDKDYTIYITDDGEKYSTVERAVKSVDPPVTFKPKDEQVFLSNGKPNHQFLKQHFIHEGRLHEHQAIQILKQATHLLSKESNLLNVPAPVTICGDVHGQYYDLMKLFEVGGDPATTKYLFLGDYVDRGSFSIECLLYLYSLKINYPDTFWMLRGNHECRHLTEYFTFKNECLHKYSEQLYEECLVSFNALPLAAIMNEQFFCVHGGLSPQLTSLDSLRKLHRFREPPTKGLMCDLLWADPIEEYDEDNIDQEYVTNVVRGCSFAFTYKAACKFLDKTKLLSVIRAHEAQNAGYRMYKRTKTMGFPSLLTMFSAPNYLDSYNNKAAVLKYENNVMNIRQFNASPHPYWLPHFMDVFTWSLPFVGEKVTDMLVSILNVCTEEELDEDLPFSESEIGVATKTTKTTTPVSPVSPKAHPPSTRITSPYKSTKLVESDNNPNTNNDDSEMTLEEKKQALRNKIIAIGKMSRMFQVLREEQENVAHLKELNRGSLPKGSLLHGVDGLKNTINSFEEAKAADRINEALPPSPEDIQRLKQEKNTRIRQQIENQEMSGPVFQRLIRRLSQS

[9] = system: Streptococcus sp. 'group A'; test: growth inhibition of control SK(-) GAS strain, dose response, counter-screen for streptokinase expression inhibitor project, luminescence, kanamycin, BacTiterGlo, confirmation (AID 1900); type: functional, organism-based
[10] = target: ATP-dependent molecular chaperone HSP82 (Candida albicans (strain WO-1) (Yeast), UniProt C4YTQ8); test: loss of DOC-induced GRE-beta-galactosidase reporter signal, dose response, Hsp90 inhibitor project, S. cerevisiae, luminescence (AID 2400); type: functional, cell-based;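 also: beta-galactosidase luminescence from glucocorticoid response element reporter as proxy for Hsp90 function; inhibitor potency where signal loss means Hsp90 inhibition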
Chain of ATP-dependent molecular chaperone HSP82 (C4YTQ8 whole entry): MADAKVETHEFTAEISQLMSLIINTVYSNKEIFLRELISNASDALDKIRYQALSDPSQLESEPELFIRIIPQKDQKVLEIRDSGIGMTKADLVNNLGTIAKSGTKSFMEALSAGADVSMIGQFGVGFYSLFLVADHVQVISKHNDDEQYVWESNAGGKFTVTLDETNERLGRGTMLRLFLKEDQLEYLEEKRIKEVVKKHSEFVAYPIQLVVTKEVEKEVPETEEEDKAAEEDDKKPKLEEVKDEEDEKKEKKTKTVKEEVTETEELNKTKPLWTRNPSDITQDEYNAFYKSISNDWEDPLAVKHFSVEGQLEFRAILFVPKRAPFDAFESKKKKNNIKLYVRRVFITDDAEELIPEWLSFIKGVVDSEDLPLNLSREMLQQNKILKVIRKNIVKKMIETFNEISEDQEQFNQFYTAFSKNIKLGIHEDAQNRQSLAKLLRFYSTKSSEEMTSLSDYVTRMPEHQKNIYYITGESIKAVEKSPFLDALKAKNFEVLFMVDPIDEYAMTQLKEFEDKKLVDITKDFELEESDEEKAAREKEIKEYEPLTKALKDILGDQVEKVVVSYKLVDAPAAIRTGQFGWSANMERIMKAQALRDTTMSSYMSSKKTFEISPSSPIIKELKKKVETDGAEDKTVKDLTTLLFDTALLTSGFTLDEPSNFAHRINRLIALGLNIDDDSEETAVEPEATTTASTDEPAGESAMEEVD

[11] = NIH-3T3 fibroblast cytotoxicity, dose response, cytotoxicity control, cell-based, fluorescence, Alamar Blue, secondary assay (AID 2327); type: functional;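 also: NIH-3T3 mouse fibroblasts cultured with fluconazole at 8 µg/mL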
P388/ADR = test: cells; type: functional; conditions: Mus musculus
SN12K1 = test: cells; type: functional
[12] = target: T3, DNA repair and recombination protein RAD54-like (Homo sapiens, UniProt Q92698); test: inhibitors of human RAD54 branch migration, confirmation, biochemical, fluorescence, cherry-picked samples, dose series (AID 651657); type: functional
T3 sequence (Q92698 whole entry): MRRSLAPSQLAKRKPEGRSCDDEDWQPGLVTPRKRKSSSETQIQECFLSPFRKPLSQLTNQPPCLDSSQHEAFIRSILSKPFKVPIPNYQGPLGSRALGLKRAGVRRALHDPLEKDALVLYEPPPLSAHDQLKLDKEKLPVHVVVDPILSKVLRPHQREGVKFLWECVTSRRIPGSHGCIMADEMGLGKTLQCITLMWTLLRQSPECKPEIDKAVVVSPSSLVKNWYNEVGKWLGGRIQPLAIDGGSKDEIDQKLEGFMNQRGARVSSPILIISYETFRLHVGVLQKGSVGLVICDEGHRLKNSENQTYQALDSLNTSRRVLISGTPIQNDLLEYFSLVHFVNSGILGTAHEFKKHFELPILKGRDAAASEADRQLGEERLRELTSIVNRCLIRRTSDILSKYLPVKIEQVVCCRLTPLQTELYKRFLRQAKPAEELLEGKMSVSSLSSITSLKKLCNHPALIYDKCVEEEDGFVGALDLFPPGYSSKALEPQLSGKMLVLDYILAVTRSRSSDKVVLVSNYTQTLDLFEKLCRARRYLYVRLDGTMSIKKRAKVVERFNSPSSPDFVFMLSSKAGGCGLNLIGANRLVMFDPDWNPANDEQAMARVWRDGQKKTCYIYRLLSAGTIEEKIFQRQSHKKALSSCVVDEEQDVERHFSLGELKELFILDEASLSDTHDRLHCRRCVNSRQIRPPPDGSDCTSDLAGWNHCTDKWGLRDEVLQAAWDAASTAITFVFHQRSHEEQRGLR

[13] = target: T4, DNA repair protein RAD52 homolog (Homo sapiens, UniProt P43351); type: functional, biochemical
T4 sequence (P43351 whole entry): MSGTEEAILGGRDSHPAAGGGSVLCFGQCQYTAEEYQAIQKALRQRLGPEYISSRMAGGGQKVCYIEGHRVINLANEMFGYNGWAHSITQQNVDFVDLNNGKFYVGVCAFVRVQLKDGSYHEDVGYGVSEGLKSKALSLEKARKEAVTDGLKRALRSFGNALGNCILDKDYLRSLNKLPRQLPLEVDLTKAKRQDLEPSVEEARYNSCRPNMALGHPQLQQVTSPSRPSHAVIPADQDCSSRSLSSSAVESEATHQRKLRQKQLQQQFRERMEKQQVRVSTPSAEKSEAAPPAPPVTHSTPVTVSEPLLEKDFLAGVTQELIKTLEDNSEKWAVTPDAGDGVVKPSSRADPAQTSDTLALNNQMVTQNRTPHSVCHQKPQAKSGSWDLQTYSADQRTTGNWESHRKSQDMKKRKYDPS

Vero = test: cells; type: functional; conditions: Chlorocebus sabaeus
cells [14] = type: functional, cell-based
HEK293 = test: inhibitors of LMP1-driven NF-kB reporter, dose response, cell-based, HEK293, luciferase, cherry-pick (AID 588343); type: functional; conditions: Homo sapiens
cells [15] = type: functional, cell-based; remark: listed apart in the source
[16] = target: T5, Rac GTPase-activating protein 1 (Homo sapiens, UniProt Q9H0H5); test: MgcRacGAP GTPase-activating activity inhibitors, confirmation, biochemical, ADP Hunter fluorescence, primary and confirmatory (AID 624330); type: functional
T5 sequence (Q9H0H5 whole entry): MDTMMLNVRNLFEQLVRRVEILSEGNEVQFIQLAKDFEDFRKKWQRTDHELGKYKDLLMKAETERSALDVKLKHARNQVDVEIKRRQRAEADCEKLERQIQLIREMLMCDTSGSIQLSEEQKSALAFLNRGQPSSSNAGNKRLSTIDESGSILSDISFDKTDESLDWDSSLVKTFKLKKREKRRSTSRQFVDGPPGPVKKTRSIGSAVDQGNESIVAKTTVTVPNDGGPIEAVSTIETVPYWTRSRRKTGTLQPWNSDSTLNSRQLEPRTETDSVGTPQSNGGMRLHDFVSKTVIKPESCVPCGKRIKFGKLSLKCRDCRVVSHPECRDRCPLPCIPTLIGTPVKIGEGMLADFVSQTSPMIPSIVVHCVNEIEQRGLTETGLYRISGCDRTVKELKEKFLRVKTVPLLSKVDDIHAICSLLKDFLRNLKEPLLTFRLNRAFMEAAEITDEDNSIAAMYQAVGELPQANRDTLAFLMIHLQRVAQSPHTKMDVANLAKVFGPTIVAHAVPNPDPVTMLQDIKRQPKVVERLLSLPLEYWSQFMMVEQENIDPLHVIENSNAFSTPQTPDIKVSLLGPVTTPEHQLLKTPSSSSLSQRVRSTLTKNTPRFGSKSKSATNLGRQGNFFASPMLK

Nonstructural protein 1 = Nonstructural protein 1 (Influenza A virus, UniProt Q194T2); type: functional, Influenza A virus (A/California/07/2009(H1N1))
Chain of Nonstructural protein 1 (Q194T2 whole entry): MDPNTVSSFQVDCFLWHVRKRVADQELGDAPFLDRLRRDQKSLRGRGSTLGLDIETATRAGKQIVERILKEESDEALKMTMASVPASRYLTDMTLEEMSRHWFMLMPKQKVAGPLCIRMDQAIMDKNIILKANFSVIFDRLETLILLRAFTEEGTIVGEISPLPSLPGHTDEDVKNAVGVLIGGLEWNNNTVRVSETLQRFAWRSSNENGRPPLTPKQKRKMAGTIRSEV

Cytochrome P450 3A4 = Cytochrome P450 3A4 (Homo sapiens, UniProt P08684);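 also: CYP3A4 tested as one member of a cytochrome P450 panel screen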
Chain of Cytochrome P450 3A4 (P08684 whole entry): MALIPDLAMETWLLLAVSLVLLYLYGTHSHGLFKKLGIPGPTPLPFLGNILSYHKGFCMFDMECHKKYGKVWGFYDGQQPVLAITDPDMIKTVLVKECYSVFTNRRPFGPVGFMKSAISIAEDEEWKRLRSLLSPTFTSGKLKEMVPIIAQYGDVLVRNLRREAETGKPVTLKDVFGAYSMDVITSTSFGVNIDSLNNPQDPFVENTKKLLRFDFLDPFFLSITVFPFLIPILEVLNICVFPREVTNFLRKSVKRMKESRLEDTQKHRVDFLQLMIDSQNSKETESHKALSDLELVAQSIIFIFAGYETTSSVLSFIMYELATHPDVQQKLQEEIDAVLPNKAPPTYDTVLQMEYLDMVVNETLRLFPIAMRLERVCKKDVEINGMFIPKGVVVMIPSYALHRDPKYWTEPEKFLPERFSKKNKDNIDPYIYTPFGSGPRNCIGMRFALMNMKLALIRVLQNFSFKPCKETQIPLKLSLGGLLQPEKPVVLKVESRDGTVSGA

Cytochrome P450 2D6 = Cytochrome P450 2D6 (Homo sapiens, UniProt P10635);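 also: CYP2D6 member of a cytochrome P450 panel assay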
Chain of Cytochrome P450 2D6 (P10635 whole entry): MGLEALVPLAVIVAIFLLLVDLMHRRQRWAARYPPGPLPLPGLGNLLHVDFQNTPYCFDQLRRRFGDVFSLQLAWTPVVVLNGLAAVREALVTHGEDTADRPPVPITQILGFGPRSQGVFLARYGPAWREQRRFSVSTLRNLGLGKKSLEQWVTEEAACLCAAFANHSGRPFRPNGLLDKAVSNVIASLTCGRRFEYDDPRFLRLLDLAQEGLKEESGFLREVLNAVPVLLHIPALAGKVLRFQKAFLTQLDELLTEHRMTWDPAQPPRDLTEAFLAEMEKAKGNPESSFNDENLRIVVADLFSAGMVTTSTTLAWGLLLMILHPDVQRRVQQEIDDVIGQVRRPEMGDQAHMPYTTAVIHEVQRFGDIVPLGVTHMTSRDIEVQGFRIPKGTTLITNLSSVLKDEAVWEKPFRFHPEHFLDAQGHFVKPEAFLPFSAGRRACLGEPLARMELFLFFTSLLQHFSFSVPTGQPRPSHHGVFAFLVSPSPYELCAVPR

Large T antigen = Large T antigen (Simian virus 40, UniProt P03070); type: functional, Betapolyomavirus macacae;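 also: Confirmatory-stage PubChem screen for compounds that inhibit SV40 T antigen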
Chain of Large T antigen (P03070 whole entry): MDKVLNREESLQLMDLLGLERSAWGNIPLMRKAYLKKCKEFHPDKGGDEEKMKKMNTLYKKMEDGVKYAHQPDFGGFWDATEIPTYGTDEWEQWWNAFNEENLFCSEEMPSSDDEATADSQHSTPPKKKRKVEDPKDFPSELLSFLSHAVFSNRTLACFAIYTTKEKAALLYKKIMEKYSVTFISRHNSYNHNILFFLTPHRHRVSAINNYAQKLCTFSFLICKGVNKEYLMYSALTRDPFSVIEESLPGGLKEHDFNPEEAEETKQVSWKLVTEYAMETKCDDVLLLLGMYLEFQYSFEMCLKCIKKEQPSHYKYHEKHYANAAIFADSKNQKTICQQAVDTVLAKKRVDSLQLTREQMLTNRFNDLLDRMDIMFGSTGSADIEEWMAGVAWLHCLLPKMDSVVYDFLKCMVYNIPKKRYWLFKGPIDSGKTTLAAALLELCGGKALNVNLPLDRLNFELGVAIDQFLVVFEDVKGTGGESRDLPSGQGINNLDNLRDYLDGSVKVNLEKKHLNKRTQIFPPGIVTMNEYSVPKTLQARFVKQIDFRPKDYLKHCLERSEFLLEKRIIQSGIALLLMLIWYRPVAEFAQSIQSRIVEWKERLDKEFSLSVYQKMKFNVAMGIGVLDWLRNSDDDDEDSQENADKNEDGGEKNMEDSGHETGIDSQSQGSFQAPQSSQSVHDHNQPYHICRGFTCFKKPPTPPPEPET

Cn1c(=O)oc2cc(S(=O)(=O)N3CCN(c4ccccc4F)CC3)ccc21
IC50 (Prothrombin): 52.9 µM (active)
IC50 [1]: 20.7 µM (active)
IC50 [2]: > 100 µM (inactive)

O=C(N(c1ccccn1)c1ccccn1)C12CC3CC(CC(Cl)(C3)C1)C2
AC50 [3]: 5.04 µM (active)
AC50 [4]: 6.95 µM (active)
AC50 [5]: 4.96 µM (active)
AC50 [6]: 9.92 µM (active)

O=C(c1cc2ccccc2cc1O)N1CCN(c2ccccc2O)CC1
EC50 (Streptokinase A): > 150 µM (not active)
EC50 [7]: 0.274 µM (active)
EC50 (Streptococcus): 110 µM (active)
EC50 [8]: > 180 µM (inactive)
EC50 [9]: 24.3 µM (active)
EC50 [10]: > 150 µM (inactive)
EC50 [11]: > 150 µM (inactive)

CCN(CC)CC[n+]1ccc2c(C)c3[nH]c4ccccc4c3c(C)c2c1
GI50 (P388/ADR): 29.9 µM (inactive)
GI50 (SN12K1): 0.137 µM (active)

Cn1c2ccccc2c(=O)c2cc(NCCCN3CCOCC3)ccc21
AC50 [12]: 11.7 µM (active)
AC50 [13]: 7.92 µM (active)

O=C(CC1CCCC1)NNC(=O)c1ccccc1O
CC50 (Vero): > 25 µM (active)

CCN(CC)S(=O)(=O)c1ccc(N/N=C/c2ccc(O)cc2O)nc1
EC50 [7]: 0.945 µM (active)
EC50 (cells [14]): 4.61 µM (active)
AC50 (HEK293): 5.04 µM (active)
EC50 [8]: > 180 µM (inactive)
EC50 [10]: > 160 µM (inactive)
EC50 (cells [15]): > 350 µM (not active)
IC50 [16]: 24.3 µM (active)
IC50 (Nonstructural protein 1): 12.1 µM (active)
EC50 [11]: 38.5 µM (active)

CC(C)(C)c1nc2ccccc2c2nnc(SCC(=O)Nc3nc4ccccc4s3)n12
IC50 (Prothrombin): > 100 µM (inactive)
IC50 [1]: 3.79 µM (active)
IC50 [2]: > 100 µM (inactive)

COc1ccc(-n2nc(C(=O)NCC(=O)N3CCN(c4ccc(F)cc4)CC3)c3ccccc3c2=O)c(OC)c1
EC50 [7]: 0.642 µM (active)
EC50 [8]: > 180 µM (inactive)
EC50 [10]: > 150 µM (inactive)
EC50 [11]: > 150 µM (inactive)

COc1ccc(NC(=O)c2cccc3c(-c4cccnc4)coc23)cc1
IC50 (Prothrombin): > 100 µM (inactive)
IC50 [1]: 15.2 µM (active)
IC50 [2]: > 100 µM (inactive)

Cc1ccc2[nH]c(/C(C#N)=C\c3ccc(OC(=O)c4cccs4)cc3)nc2c1
EC50 [7]: 5.29 µM (active)
AC50 (Cytochrome P450 3A4): 14.1 µM (inconclusive)
AC50 (Cytochrome P450 2D6): 3.55 µM (inconclusive)
EC50 [8]: > 180 µM (inactive)
EC50 [10]: 23.3 µM (active)
EC50 [11]: 17.2 µM (inconclusive)

COc1ccc(NC(=O)Nc2ccc3c(c2)CC(=O)N([C@H](C)CO)C[C@H](C)[C@H](CN(C)S(=O)(=O)c2cccs2)O3)cc1
AC50 [3]: 0.96 µM (active)
AC50 [5]: 1.55 µM (active)
AC50 [6]: 5.21 µM (active)

COc1cc2c(cc1O)CC[n+]1cc3c(OC)c(OC)ccc3cc1-2 [JATRORRHIZINE]
EC50 [7]: 2.91 µM (active)
IC50 (Large T antigen): 10.1 µM (active)
AC50 [13]: 15.2 µM (active)
EC50 [11]: > 160 µM (inactive)

CC[C@]1(C(=O)OC)[C@H]2C(=O)N(Cc3ccccc3)C(=O)[C@H]2[C@H]2CN=C(SCc3ccccc3)N21
AC50 [3]: 1.01 µM (active)
AC50 [4]: 1.55 µM (active)
AC50 [5]: 1.16 µM (active)
AC50 [6]: 1.68 µM (active)

CCN(CC)CCN(C(=O)c1ccc2ncsc2c1)c1nc2cc3c(cc2s1)OCO3
AC50 [12]: 51.9 µM (active)
